Assay results reported in a melting point compilation (Tetko et al.; mined from patent text by program, amines drawn as free bases though some values may be those of a salt).

Work on `Cn1cc(C2=C(c3ccc4ccccc4c3)C(=O)NC2=O)c2ccccc21` yielded a melting point of 180 to 184 °C. With `COc1cc2c(cc1Cl)CCNCC2c1ccc(Br)cc1` (configuration not stated) the melting point was 139 to 140 °C. With `O=C(NCc1ccc(Cl)cc1)c1cn2c3c(cc(CN4CCOCC4)cc3c1=O)OC(c1ccc(O)cc1)C2` (configuration not stated) the melting point was > 260 °C. `O=C(Nc1nnc(C2CC2)o1)C(c1ccccc1)c1ccccc1` showed a melting point of 159 to 160 °C. Work on `CCOC(C)OCC(C)C1CCC2C3C=CC4=CC(=O)C5OC5C4(C)C3CCC12C` (configuration not stated) yielded a melting point of 91 to 93 °C. `O=C1c2ccc(N3CCCC3)c3cc(Br)cc(c23)C(=O)N1O` gave a melting point of 234 to 235 °C. With `Nc1ccccc1S(=O)(=O)N1CC=CC1` the melting point was 104 to 105 °C. In the case of `CNS(=O)(=O)c1ccc(C2=C(c3cccc(F)c3)C(=O)C(C)(C)O2)cc1`, the melting point is reported as 176 to 177 °C. `O=C(O)CCCCCCCCCCn1c(-c2ccccc2)c(-c2ccccc2)n(-c2ccccc2)c1=O` gave a melting point of 83 to 84 °C. With `CCCOc1cc(C)ccc1C1=NC(=O)C2=NC=NC2=N1` the melting point was 323 to 325 °C. Compound `CNc1nc(S(=O)(=O)Nc2c(F)cccc2F)nn1-c1ccccc1` has a melting point of 180 to 181 °C. Compound `C#CCOc1cc(OCC#C)ncn1` has a melting point of 74 °C. `O=c1[nH]c2cc(F)c(NCCCC3CCCOC3)cc2o1` (configuration not stated) gave a melting point of 144 to 145 °C. Compound `COc1nc2ncnc(NCc3ccco3)c2[nH]1` has a melting point of 196 to 198 °C. `CC(=O)c1c(C)nc2c(OCc3c(Cl)ccc(S(=O)(=O)N4CCC[C@H]4C(=O)NCCCNC(=O)c4ccc(C#N)cc4)c3Cl)cccn12` showed a melting point of 100 to 102 °C. In the case of `O=C(NN1CCOCC1)C(CS)Cc1c(Cl)cccc1Cl` (configuration not stated), the melting point is reported as 142 °C. `Cc1cc(N(C)N)nnc1-c1ccc(C#N)cc1` gave a melting point of 149 to 152 °C. In the case of `Oc1ccc(C2(c3ccc(O)cc3)c3ccccc3C(c3ccc(O)cc3)(c3ccc(O)cc3)c3ccccc32)cc1`, the melting point is reported as 208 to 209 °C. `CCCCCCCCCCCCNC(=O)c1cc(Br)c(OCCn2ncnn2)c(-c2cccc(C(F)(F)F)c2)c1` showed a melting point of 75.6 to 76.2 °C. In the case of `CC(C)(C)c1nn(-c2c(Cl)cc(C(F)(F)F)cc2Cl)c(Br)c1[N+](=O)[O-]`, the melting point is reported as 105 to 108 °C. Work on `CCOC(=O)c1nc2ccc(OC)cc2nc1Cl` yielded a melting point of 75 °C. Work on `O=C(O)c1cn(-c2nccs2)c2nc(Cl)cc(Cl)c2c1=O` yielded a melting point of 264 to 266 °C. Compound `CC(=O)N1c2c(ccn3c(C)c(C)nc23)C(=O)[C@H](OC(=O)C(C)(C)C)[C@H]1c1ccccc1` has a melting point of 168 to 170 °C. In the case of `COc1cc2c(cc1OC)/C(=C\c1ccc(OCC(=O)OC(C)(C)C)cc1)C(=O)N2`, the melting point is reported as 158 to 160 °C. `O=C(O)COc1ccc(-c2cc(O)c(SCCc3ccccc3)c(=O)o2)cc1` showed a melting point of 182 to 183 °C. Work on `COc1cc(C(=O)CS(C)(=O)=O)cc(OC)c1N(C)C` yielded a melting point of 111 to 112 °C. In the case of `CC(=O)ON=C(N)c1ccc(C(=O)N2CCN(C(=O)[C@@H]3CCCN3S(=O)(=O)c3ccc(Cl)c(COc4cccn5c(C)c(C)nc45)c3Cl)CC2)cc1`, the melting point is reported as 142 to 145 °C. `Brn1nnc2c3scnc3ccc21` showed a melting point of 282 to 285 °C. Work on `O=S(=O)(Cc1ccccc1)c1cccc2c1ccn2-c1ccnc(N[C@H]2CC[C@H](O)CC2)n1` yielded a melting point of 132 to 134 °C. With `CON=C(C(=O)OC)c1csc(NC(=O)CCl)n1` the melting point was 131 °C. `CN(C)c1ccc(N(c2ccccc2)C2(c3ccc(N(C)C)cc3)OC(=O)c3ccccc32)cc1` (configuration not stated) showed a melting point of 163 to 166 °C. Work on `CCCCC(=O)c1ccc(NC(C)=O)cc1O` yielded a melting point of 113 °C. `O=C(NO)[C@H](CNS(=O)(=O)c1ccc(OCc2ccccc2)cc1)N1CCCC1` showed a melting point of 186 °C. Compound `CCOC(=O)C(N=Nc1sc(C)c(C)c1C(=O)c1ccccc1)NC(=O)CCl` (configuration not stated) has a melting point of 123 to 125 °C. `CCCCc1oc2ccccc2c1C(=O)Nc1ccc(-c2ccc(OCC(=O)O)cc2)cc1` gave a melting point of 225 to 227 °C. Work on `CON=C(c1ccccc1)c1ccc2c(c1)C(C)(C)CCN2CCOc1ccc(CC(OCC(F)(F)F)C(=O)O)cc1` (configuration not stated) yielded a melting point of 62 to 64 °C. Work on `O=C1CN(Cc2n[nH]c(=O)[nH]2)[C@@H](c2ccccc2)[C@@H](COCc2cc(C(F)(F)F)cc(C(F)(F)F)c2)N1` yielded a melting point of 138 to 140 °C. For `Cc1cc2c(cc1C)N(C)C(=O)c1cccnc1N2`, the melting point was 206 to 209 °C. `CC(=O)Nc1c(C(=O)c2cccc(Cl)c2)[nH]c2cc(Cl)ccc12` gave a melting point of 152 to 154 °C. `CCOCc1nc2cnc3cc(O)ccc3c2n1CC1COC(C)(C)O1` (configuration not stated) showed a melting point of 239 to 240 °C. Compound `COC(=O)C(Cc1ccccc1)C(=O)N1CCC(C(=O)O)CC1` (configuration not stated) has a melting point of 138 °C. For `O=c1cc(-c2ccsc2)c2ccc(CCl)cc2o1`, the melting point was 125 to 127 °C. `c1ccc(COc2cccc3sncc23)cc1` gave a melting point of 47 to 49 °C. In the case of `O=C(Nc1ccc(C(F)(F)F)cc1)Nc1ccc(C(=O)N2CCOCC2)s1`, the melting point is reported as 250 to 253 °C. `COCCNC1CCc2cc(Nc3ncc(Cl)c(Nc4c(OC)ccc5c4CN(S(C)(=O)=O)CC(=O)N5)n3)c(OC)cc2CC1` (configuration not stated) gave a melting point of 110 to 114 °C. In the case of `COc1cc2c(Cl)c(C#N)cnc2cc1F`, the melting point is reported as 160 to 162 °C. For `O=C(c1ccccc1)c1c[nH]c2cnccc12`, the melting point was 218 to 220 °C. Work on `Clc1ccc(-n2cc(Br)cn2)cc1` yielded a melting point of 75 to 76 °C. Work on `CCC1COC(=O)C(=CC(=O)OC)N1` (configuration not stated) yielded a melting point of 68 to 70 °C. Work on `Cc1nc(NC(=O)c2ccc(OC(F)(F)F)cc2)sc1C(=O)NCc1ccccc1` yielded a melting point of 168 to 170 °C. `O=C(NCc1ccc(Cl)cc1)c1cn(CCc2ccccc2)c2oc(CCl)cc2c1=O` gave a melting point of 150 to 153 °C. `ClCc1cccc2c(-c3ccc(Cl)cc3)nccc12` showed a melting point of 101 to 102 °C. `C#CCOc1cc(-c2ncc(C(F)(F)F)cc2Cl)c(F)cc1Cl` showed a melting point of 97 to 98 °C. Compound `COc1cccc2c1C(C)C(=O)N2C` (configuration not stated) has a melting point of 73 to 74 °C. Compound `CC(C)(C)OC(=O)COC[C@@H]1C[C@@H](SC(c2ccccc2)(c2ccccc2)c2ccccc2)CN1S(C)(=O)=O` has a melting point of 98 °C. For `CN(CCOc1ccc(CC2SC(=O)NC2=O)cc1)C(=O)c1ccccc1` (configuration not stated), the melting point was 139 to 142 °C. Compound `NC(=O)N1CC(Oc2ccc(Br)cc2)C1` has a melting point of 193 to 194 °C. In the case of `CCN(CC1CCCC1)c1nc2ccccc2cc1CN(Cc1cc(C(F)(F)F)cc(C(F)(F)F)c1)C(N)=S`, the melting point is reported as 98 °C. For `O=C(Nc1ccc(S(=O)(=O)c2ccccc2)cc1)N[C@@H](Cc1ccc(NC(=O)c2c(Cl)cccc2Cl)cc1)C(=O)O`, the melting point was 222 °C. In the case of `O=c1ccc2c(n1CCc1ccccc1)CCCC2NCCc1ccc(Cl)c(Cl)c1` (configuration not stated), the melting point is reported as 120 to 122 °C. Compound `CCOC(=O)Cn1cc(Cc2nc3c(F)c(F)cc(F)c3s2)c2ccc(CC)nc21` has a melting point of 114 to 115 °C. `O=C(O)CCC(Cc1ccc(Cl)c(Cl)c1)(C(=O)C=Cc1ccc(Cl)cc1)c1ccccc1` (configuration not stated) showed a melting point of 155 to 156 °C. `O=S(=O)(CC1CC1)c1nc(-c2ccc(F)cc2)c(-c2ccc(F)cc2)[nH]1` gave a melting point of 251 °C. `Nc1c(Cl)cc(C(O)CNCCCCCCOCCSCCc2ccccn2)cc1Cl` (configuration not stated) gave a melting point of 59.5 to 62 °C. `CS(=O)(=O)NCc1ccc2[nH]cc(C(=O)C(=O)N3CCCC3)c2c1` gave a melting point of 235 to 236 °C. In the case of `COCCOC(=O)NCC(C)(C)N`, the melting point is reported as 94 to 96 °C. In the case of `C[C@@H](Oc1cccc(F)c1N)[C@H](NC(=O)OC(C)(C)C)C(=O)O`, the melting point is reported as 158 to 160 °C. Work on `CN(C)CCOc1ccc(Nc2nccc(-c3c[nH]nc3-c3ccc(OCc4ccccc4)cc3)n2)cc1` yielded a melting point of 87 to 91 °C. Work on `Cc1ccc(C(=C2CN(C(c3ccccc3)c3ccccc3)C2)S(C)(=O)=O)cc1` yielded a melting point of 210 °C. With `Cc1[nH]cnc1CSCCN=CNC#N` the melting point was 168 to 170 °C. For `Fc1ccc(C2=Nc3cccnc3Nc3ccccc32)cc1`, the melting point was 203 to 205 °C. With `Nn1c(=O)c2cc(F)c(Cl)nc2n(C2CC2)c1=O` the melting point was 192 to 194 °C. `O=C(O)Cc1c(-c2ccccc2)[nH]c2nccnc12` showed a melting point of 276 to 277 °C. `CS(=O)(=O)c1ccc(-c2cc(Br)sc2-c2ccc(F)cc2)cc1` showed a melting point of 122 to 124 °C. With `Cc1cc(-c2nc3cccnn3c2-c2ccnc(NC(=O)c3ccc(Cl)nc3)c2)ccc1F` the melting point was 225 to 226 °C. Work on `C=Cc1cc(O)cc2nc(-c3ccc(O)c(F)c3)oc12` yielded a melting point of 249 to 251 °C. `Cn1ccnc1COc1cccc(Nc2cc(-c3c[nH]nc3-c3ccccn3)ccn2)c1` gave a melting point of 120 °C. `Cc1nc(O)c(C#N)c(C)c1Br` showed a melting point of 254 to 262 °C. With `O=C(CCc1ccccc1)N[C@H](Cc1ccc(C(F)(F)F)cc1)[C@@H](O)c1cccc(F)c1` (racemic) the melting point was 151 to 152 °C. `Cc1ccc2c(c1)C1(COc3cc4c(cc31)OCCO4)C(=O)N2Cc1ncccc1C(F)(F)F` (configuration not stated) gave a melting point of 137 to 139 °C. Compound `COc1ccc(CCOc2nccc(-c3cccc(C(=O)O)c3)n2)cc1OC` has a melting point of 171 to 172 °C. For `COC[C@H]1CCCN1NC(=O)Nc1cccc2c1C(=O)c1c-2n[nH]c1-c1ccc(C(=O)N2CCNCC2)s1`, the melting point was > 300 °C. `CCCCn1c(NCCC)nc2ccc(Br)cc2c1=O` showed a melting point of 71 to 73 °C. With `CCOCN(C(=O)CCl)c1c(OC)cccc1OC` the melting point was 95 to 97 °C. Compound `CN1CCC23c4c5ccc(O)c4OC2C(OC2OC(C(=O)O)C(O)C(O)C2O)C=CC3C1C5` (configuration not stated) has a melting point of 240 to 243 °C. In the case of `Cc1nc(N2CCN(Cc3ccc(F)cc3)C2=O)sc1C(=O)NCc1ccccc1`, the melting point is reported as 192 to 193 °C. `CCOc1c(C(=O)NCC(O)CN(CC)CC)n(-c2ccccc2)c2ccccc12` (configuration not stated) gave a melting point of 146 to 148 °C. For `Cc1c(Sc2ccc(Cl)cc2)nn(-c2ccc(S(C)(=O)=O)cc2)c(=O)c1C#N`, the melting point was 199 to 201 °C. In the case of `Oc1c(CN2CCCC2)cc(Nc2ccnc3cc(Cl)ccc23)cc1CN1CCCC1`, the melting point is reported as 92 °C. In the case of `O=C1CC(c2ccc(OCc3ccccc3)cc2)=Nc2ccc(N3CCCC3)cc21`, the melting point is reported as 330 to 332 °C. In the case of `O=C(O)c1nc2cc(-n3ccnc3)c([N+](=O)[O-])cc2[nH]c1=O`, the melting point is reported as > 300 °C. `CC(=O)c1cc(N2CCOCC2)ccc1NC(=O)c1ccc(OCc2ccccc2)cc1` showed a melting point of 172 to 175 °C. `Cn1cc(C2CCN(CCCCNC(=O)c3ccc(-c4ccc(C(F)(F)F)cc4)cc3)CC2)c2ccccc21` showed a melting point of 205 to 206 °C. Compound `CCCCCCCCCCCOCCCN=C=O` has a melting point of 72 to 78 °C. `Cc1c[nH]c(-c2c(Cl)cc(C(F)(F)F)cc2Cl)n1` showed a melting point of 211 to 212 °C. In the case of `COc1nccc(F)c1NC(=O)OC(C)(C)C`, the melting point is reported as 75 to 77 °C. For `CC1COC2(CCN(c3nc(=O)c4cc(C#N)cc([N+](=O)[O-])c4s3)CC2)O1` (configuration not stated), the melting point was 251 to 253 °C.
